From ChEMBL document CHEMBL1144419, “N-terminal fatty acylated His-dPhe-Arg-Trp-NH(2) tetrapeptides: influence of fatty acid chain length on potency and selectivity at the mouse melanocortin receptors and human melanocytes” (J Med Chem, 2005) come the findings set out here.

Format in all cases: functional
The target in assay [1] is Melanocortin receptor 5 (Mus musculus, UniProt P41149). As to the kind of experiment: In vitro agonist potency for Mouse Melanocortin 5 receptor.
Assay [2] deals with Melanocyte-stimulating hormone receptor (Mus musculus, UniProt Q01727). As to the kind of experiment: In vitro agonist potency for Mouse Melanocortin 1 receptor.
Chain of Melanocyte-stimulating hormone receptor (Q01727 whole entry): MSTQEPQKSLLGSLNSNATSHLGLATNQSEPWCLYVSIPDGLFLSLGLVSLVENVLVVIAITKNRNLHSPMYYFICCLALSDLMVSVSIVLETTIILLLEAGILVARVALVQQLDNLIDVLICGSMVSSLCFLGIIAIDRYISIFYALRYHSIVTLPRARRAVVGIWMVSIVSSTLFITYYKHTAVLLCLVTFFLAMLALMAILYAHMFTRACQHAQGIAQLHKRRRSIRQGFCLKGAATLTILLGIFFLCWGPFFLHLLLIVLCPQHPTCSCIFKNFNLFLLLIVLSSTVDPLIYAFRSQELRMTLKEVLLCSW
For assay [3], the target named is Melanocortin receptor 3 (Mus musculus, UniProt P33033). As to the kind of experiment: In vitro agonist potency for Mouse Melanocortin 3 receptor.
Chain of Melanocortin receptor 3 (P33033 whole entry): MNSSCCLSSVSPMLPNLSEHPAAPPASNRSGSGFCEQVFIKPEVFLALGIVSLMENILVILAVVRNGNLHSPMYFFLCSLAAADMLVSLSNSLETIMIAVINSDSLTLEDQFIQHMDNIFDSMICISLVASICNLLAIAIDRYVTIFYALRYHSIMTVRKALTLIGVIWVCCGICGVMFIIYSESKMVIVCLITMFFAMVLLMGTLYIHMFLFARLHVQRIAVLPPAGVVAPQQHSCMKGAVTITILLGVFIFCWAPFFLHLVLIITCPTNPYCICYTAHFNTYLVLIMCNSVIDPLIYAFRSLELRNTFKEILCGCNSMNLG
In assay [4] the target is Melanocortin receptor 4 (Mus musculus, UniProt P56450). As to the kind of experiment: In vitro agonist potency for Mouse Melanocortin 4 receptor.
Chain of Melanocortin receptor 4 (P56450 whole entry): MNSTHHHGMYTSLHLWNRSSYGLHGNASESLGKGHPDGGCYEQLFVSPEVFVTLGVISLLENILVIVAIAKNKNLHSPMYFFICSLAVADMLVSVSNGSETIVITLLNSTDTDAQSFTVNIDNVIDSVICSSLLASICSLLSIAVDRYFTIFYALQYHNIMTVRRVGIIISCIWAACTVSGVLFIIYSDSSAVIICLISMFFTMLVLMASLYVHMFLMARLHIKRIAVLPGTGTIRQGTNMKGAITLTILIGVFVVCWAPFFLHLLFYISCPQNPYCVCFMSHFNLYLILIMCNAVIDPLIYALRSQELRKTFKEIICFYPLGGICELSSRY

pEC50: −log10 of the molar value.

Chain of Melanocortin receptor 5 (P41149 whole entry): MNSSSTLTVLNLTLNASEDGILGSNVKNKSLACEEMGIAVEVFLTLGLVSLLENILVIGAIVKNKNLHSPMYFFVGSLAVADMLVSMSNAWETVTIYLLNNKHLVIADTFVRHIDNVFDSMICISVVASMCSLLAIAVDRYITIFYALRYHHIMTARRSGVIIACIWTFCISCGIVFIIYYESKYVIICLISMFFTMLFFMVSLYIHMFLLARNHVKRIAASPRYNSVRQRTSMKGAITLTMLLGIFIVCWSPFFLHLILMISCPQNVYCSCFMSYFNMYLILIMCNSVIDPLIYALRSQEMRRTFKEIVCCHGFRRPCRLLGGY

For `CCCCCCCCCCCCC(=O)N[C@@H](Cc1cnc[nH]1)C(=O)N[C@H](Cc1ccccc1)C(=O)N[C@@H](CCCNC(=N)N)C(=O)N[C@@H](Cc1c[nH]c2ccccc12)C(N)=O`, the pEC50 in assay [1] is 8.35; in assay [2] it was 9.03; in assay [3], 6.86; in assay [4], 7.69.

For `CCCCCCCCCCC(=O)N[C@@H](Cc1cnc[nH]1)C(=O)N[C@H](Cc1ccccc1)C(=O)N[C@@H](CCCNC(=N)N)C(=O)N[C@@H](Cc1c[nH]c2ccccc12)C(N)=O`, the negative-log EC50 (pEC50) was 8.00 in assay [1], 8.55 in assay [2], 6.99 in assay [3] and 7.72 in assay [4].

For `CCCCCCCC(=O)N[C@@H](Cc1c[nH]cn1)C(=O)N[C@H](Cc1ccccc1)C(=O)N[C@@H](CCCN=C(N)N)C(=O)N[C@@H](Cc1c[nH]c2ccccc12)C(N)=O`, the pEC50 in assay [1] was 9.24; in assay [2], 9.48; in assay [3] it was 8.03; in assay [4], 8.60.

Regarding `CCCCCCCCCCCCCC(=O)N[C@@H](Cc1c[nH]cn1)C(=O)N[C@H](Cc1ccccc1)C(=O)N[C@@H](CCCN=C(N)N)C(=O)N[C@@H](Cc1c[nH]c2ccccc12)C(N)=O`, the pEC50 in assay [1] was 8.47; in assay [2], 9.24; in assay [3] it was 6.66; in assay [4], 7.98.

As to `CCCCCCCCCCCCCCC(=O)N[C@@H](Cc1c[nH]cn1)C(=O)N[C@H](Cc1ccccc1)C(=O)N[C@@H](CCCN=C(N)N)C(=O)N[C@@H](Cc1c[nH]c2ccccc12)C(N)=O`, the negative logarithm of the EC50 (pEC50) in assay [1] was 8.52; in assay [2], 8.68; in assay [3], 6.87; in assay [4], 7.88.

For `CCCCCCCCCCCCCCCCC(=O)N[C@@H](Cc1c[nH]cn1)C(=O)N[C@H](Cc1ccccc1)C(=O)N[C@@H](CCCN=C(N)N)C(=O)N[C@@H](Cc1c[nH]c2ccccc12)C(N)=O`, the negative-log EC50 (pEC50) in assay [1] is 8.55; in assay [2] it was 9.14; in assay [3], 6.58; in assay [4] it was 7.67.

For the molecule `N=C(N)NCCC[C@H](NC(=O)[C@@H](Cc1ccccc1)NC(=O)[C@@H](N)Cc1cnc[nH]1)C(=O)N[C@@H](Cc1c[nH]c2ccccc12)C(N)=O`, the negative logarithm of the EC50 (pEC50) in assay [1] was 8.56; in assay [2] it was 7.17; in assay [3] it was 6.60; in assay [4] it was 7.73.

In the case of `CC(=O)N[C@@H](Cc1cnc[nH]1)C(=O)N[C@H](Cc1ccccc1)C(=O)N[C@@H](CCCN=C(N)N)C(=O)N[C@@H](Cc1c[nH]c2ccccc12)C(N)=O`, the negative-log EC50 (pEC50) in assay [4] is 7.97.

For `CCCCCCCCCC(=O)N[C@@H](Cc1c[nH]cn1)C(=O)N[C@H](Cc1ccccc1)C(=O)N[C@@H](CCCN=C(N)N)C(=O)N[C@@H](Cc1c[nH]c2ccccc12)C(N)=O`, the pEC50 is 8.32 in assay [1], 8.48 in assay [2], 7.35 in assay [3] and 7.84 in assay [4].

Take `CCCCCCCCC(=O)N[C@@H](Cc1cnc[nH]1)C(=O)N[C@H](Cc1ccccc1)C(=O)N[C@@H](CCCNC(=N)N)C(=O)N[C@@H](Cc1c[nH]c2ccccc12)C(N)=O`: the pEC50 was 9.06 in assay [1], 9.40 in assay [2], 8.29 in assay [3] and 8.94 in assay [4].

For the molecule `CCCCCCCCCCCCCCCC(=O)N[C@@H](Cc1cnc[nH]1)C(=O)N[C@H](Cc1ccccc1)C(=O)N[C@@H](CCCNC(=N)N)C(=O)N[C@@H](Cc1c[nH]c2ccccc12)C(N)=O`, the pEC50 in assay [1] is 8.52; in assay [2] it was 9.00; in assay [3] it was 6.81; in assay [4] it was 7.58.

A word on the pEC50: it is the EC50 on a negative log10 scale, so that one unit is a factor of ten. A low value points to a large EC50.
